# Laboratory results reported in PubChem BioAssay AID278 (DTP/NCI, 2004).
# Several values for one entry are separate records, joined by “and”; a condition that tells them apart may be missing. Equal values may be shown once. Records with an inconclusive call do not appear. Residues, ends and D or L forms follow the SMILES beside them. *: point of attachment. Trt = c1ccc(C(c2ccccc2)(c2ccccc2)*)cc1; Cbz = O=C(OCc1ccccc1)*; Bn = c1ccc(C*)cc1; βAla = NCCC(=O)O
# Tested on: nude mice, A549 intrarenal xenograft, tumor weight change
# Test: NCI In Vivo Anticancer Drug Screen. Data for tumor model A549 Human Adenocarcinoma of Lung with characteristics of Type II Alveolar Epithelial cells (intrarenal inoculation) in NU/NU BALB/C (nude) mice
# Conditions: endpoint: mean tumor weight change, schedule: Q04DX003 (ip), higher = larger tumour
# Method: The antitumor activity of compounds was measured in mice bearing transplantable tumors. Survival or tumor size were measured and the results are expressed as the measurement made in the treated group (T) divided by the measurement made in the vehicle treated control group (C). The tumor model used in this assay is A549 Human Adenocarcinoma of Lung with characteristics of Type II Alveolar Epithelial cells (intrarenal inoculation) in NU/NU BALB/C (nude) mice
# [1] = dose: 300.0 mg/kg/injection, vehicle: Klucel (hydroxypropylcellulose) (HPC)
# [2] = dose: 600.0 mg/kg/injection, vehicle: Klucel (hydroxypropylcellulose) (HPC)
# [3] = dose: 50.0 mg/kg/injection, vehicle: saline
# [4] = dose: 100.0 mg/kg/injection, vehicle: saline
smiles,measurement,setting,value
NC(Cc1ccccc1)C(=O)OCN1C(=O)C2C3C=CC(C2C1=O)C1C2C(=O)N(COC(=O)C(N)Cc4ccccc4)C(=O)C2C31 (stereo not given),T/C,"dose: 25.0 mg/kg/injection, vehicle: other",82 % of control
same,T/C,"dose: 50.0 mg/kg/injection, vehicle: other",73 % of control
same,T/C,"dose: 100.0 mg/kg/injection, vehicle: other",48 % of control
same,T/C,"dose: 200.0 mg/kg/injection, vehicle: other",35 % of control
CC1(O)C=CC(=O)C=C1,T/C,"dose: 25.0 mg/kg/injection, vehicle: water",121 % of control
same,T/C,"dose: 50.0 mg/kg/injection, vehicle: water",100 % of control
c1cn[nH]c1,T/C,"dose: 113.9 mg/kg/injection, vehicle: saline",93 % of control
same,T/C,"dose: 151.9 mg/kg/injection, vehicle: saline",47 % of control
same,T/C,"dose: 202.5 mg/kg/injection, vehicle: saline",63 % of control
same,T/C,"dose: 300.0 mg/kg/injection, vehicle: saline",46 % of control
CN(C)C(=O)Nc1ccc(Cl)cc1,T/C,"dose: 150.0 mg/kg/injection, vehicle: suspension in saline",120 % of control
same,T/C,"dose: 300.0 mg/kg/injection, vehicle: suspension in saline",74 % of control
same,T/C,"dose: 600.0 mg/kg/injection, vehicle: suspension in saline",112 % of control
NNC(=O)c1ccncc1,T/C,"dose: 37.5 mg/kg/injection, vehicle: saline",99 % of control
same,T/C,"dose: 75.0 mg/kg/injection, vehicle: saline",104 % of control
same,T/C,"dose: 150.0 mg/kg/injection, vehicle: saline",69 % of control
COC(=O)C(CSC(c1ccccc1)(c1ccccc1)c1ccccc1)NC(=O)C(CSCc1ccccc1)NC(=O)CCNC(=O)OCc1ccccc1 (stereo not given) ({Cbz-βAla}-Cys(Bn)-Cys(Trt)-OMe; configuration not given here),T/C,"dose: 100.0 mg/kg/injection, vehicle: Klucel + Tween-80",153 % of control
same,T/C,"dose: 200.0 mg/kg/injection, vehicle: Klucel + Tween-80",112 % of control
same,T/C,"dose: 400.0 mg/kg/injection, vehicle: Klucel + Tween-80",161 % of control
same,T/C,"dose: 800.0 mg/kg/injection, vehicle: Klucel + Tween-80",109 % of control
CCCCN1C(=O)N(c2ccc(OCC)cc2)C2N(CCCC)C1C(C)(C)C2(C)C (stereo not given),T/C,"dose: 15.0 mg/kg/injection, vehicle: saline with Tween-80",60 % of control
same,T/C,"dose: 30.0 mg/kg/injection, vehicle: saline with Tween-80",51 % of control
same,T/C,"dose: 60.0 mg/kg/injection, vehicle: saline with Tween-80",88 % of control
same,T/C,"dose: 120.0 mg/kg/injection, vehicle: saline with Tween-80",94 % of control
CC[C@@]1(O)C(=O)OCc2c1cc1n(c2=O)Cc2cc3c(N)cccc3nc2-1,T/C,"dose: 1.0 mg/kg/injection, vehicle: saline with Tween-80",3 % of control
same,T/C,"dose: 1.44 mg/kg/injection, vehicle: saline with Tween-80",1 % of control
same,T/C,"dose: 2.0 mg/kg/injection, vehicle: saline with Tween-80",-8 % of control
same,T/C,"dose: 2.4 mg/kg/injection, vehicle: saline with Tween-80",-64 % of control
same,T/C,"dose: 4.0 mg/kg/injection, vehicle: saline with Tween-80",-68 % of control
COc1ccc(C[C@@H]2NC[C@@H](O)[C@@H]2OC(C)=O)cc1,T/C,"dose: 37.5 mg/kg/injection, vehicle: saline with Tween-80",87 % of control
same,T/C,"dose: 75.0 mg/kg/injection, vehicle: saline with Tween-80",48 % of control
same,T/C,"dose: 150.0 mg/kg/injection, vehicle: saline with Tween-80",86 % of control
CCOC(=O)/C=C/C(=O)N1CCN(C(=O)/C=C/C(=O)OCC)C(C)C1 (stereo not given),T/C,"dose: 150.0 mg/kg/injection, vehicle: Klucel (hydroxypropylcellulose) (HPC)",50 % of control
same,T/C,[1],71 % of control
same,T/C,[2],49 % of control
Cc1ccc(NN=O)nc1,T/C,"dose: 5.0 mg/kg/injection, vehicle: water",79 % of control
same,T/C,"dose: 10.0 mg/kg/injection, vehicle: water",81 % of control
same,T/C,"dose: 20.0 mg/kg/injection, vehicle: water",61 % of control
same,T/C,"dose: 40.0 mg/kg/injection, vehicle: water",33 % of control
COc1cc2c(cc1OC)-c1c3c(cc4c1[C@@H](C2)N(C)CC4)OCO3,T/C,"dose: 37.5 mg/kg/injection, vehicle: distilled water + Tween-80 + alcohol",89 % of control
same,T/C,"dose: 75.0 mg/kg/injection, vehicle: distilled water + Tween-80 + alcohol",84 % of control
same,T/C,"dose: 150.0 mg/kg/injection, vehicle: distilled water + Tween-80 + alcohol",21 % of control
Cc1cccc(OCC(O)CN2CC2)c1 (stereo not given),T/C,"dose: 50.0 mg/kg/injection, vehicle: saline with Tween-80",82 % of control
same,T/C,"dose: 100.0 mg/kg/injection, vehicle: saline with Tween-80",46 % of control
same,T/C,"dose: 200.0 mg/kg/injection, vehicle: saline with Tween-80",81 % of control
CN=NN(C)C(=O)NC,T/C,"dose: 25.0 mg/kg/injection, vehicle: saline",37 % of control
same,T/C,"dose: 43.2 mg/kg/injection, vehicle: saline",27 % of control
same,T/C,[3],72 % of control
same,T/C,"dose: 72.0 mg/kg/injection, vehicle: saline",28 % of control
same,T/C,[4],8 % of control
same,T/C,"dose: 120.0 mg/kg/injection, vehicle: saline",8 % of control
same,T/C,"dose: 200.0 mg/kg/injection, vehicle: saline",-34 % of control and -27 % of control
Cc1cc(NC(=S)SCc2ccc3c(c2)OCO3)ccc1Cl,T/C,[1],61 % of control
same,T/C,[2],73 % of control
C=C(Cl)C(=NC(C)(C)C)Nc1ccccc1C,T/C,"dose: 10.0 mg/kg/injection, vehicle: Klucel + Tween-80",73 % of control
same,T/C,"dose: 20.0 mg/kg/injection, vehicle: Klucel + Tween-80",68 % of control
COC1=C(OC)C(=O)C(N(C)C)=C(CO)C1=O,T/C,[3],123 % of control
same,T/C,[4],173 % of control
Cc1ccc(/C=C/C(=O)/C=C/c2ccc(C)o2)o1,T/C,"dose: 100.0 mg/kg/injection, vehicle: DMSO",123 % of control
same,T/C,"dose: 200.0 mg/kg/injection, vehicle: DMSO",73 % of control
same,T/C,"dose: 400.0 mg/kg/injection, vehicle: DMSO",78 % of control
same,T/C,"dose: 800.0 mg/kg/injection, vehicle: DMSO",68 % of control
Cc1ccc(C(=O)NC2C(=O)NC(C(C)C)C(=O)N3CCCC3C(=O)N(C)CC(=O)N(C)C(C(C)C)C(=O)OC2C)c2c1Oc1c(c(C(=O)NC3C(=O)NC(C(C)C)C(=O)N4CCCC4C(=O)N(C)CC(=O)N(C)C(C(C)C)C(=O)OC3C)c3nc(-c4ccccc4)c(=O)oc3c1C)N2 (stereo not given),T/C,"dose: 0.36 mg/kg/injection, vehicle: water",101 % of control
same,T/C,"dose: 0.5 mg/kg/injection, vehicle: water",61 % of control
same,T/C,"dose: 0.6 mg/kg/injection, vehicle: water",94 % of control
same,T/C,"dose: 1.67 mg/kg/injection, vehicle: water",62 % of control
c1ccc2c3c(c4c(c2c1)CN(C1CCCCC1)CO4)OCN(C1CCCCC1)C3,T/C,"dose: 37.5 mg/kg/injection, vehicle: distilled water + Tween-80",65 % of control
O=C([O][Bi]([c]1ccccc1)[c]1ccccc1)c1ccccc1,T/C,"dose: 25.0 mg/kg/injection, vehicle: Klucel (hydroxypropylcellulose) (HPC)",83 % of control
same,T/C,"dose: 50.0 mg/kg/injection, vehicle: Klucel (hydroxypropylcellulose) (HPC)",76 % of control
same,T/C,"dose: 200.0 mg/kg/injection, vehicle: Klucel (hydroxypropylcellulose) (HPC)",73 % of control
